In ChEMBL document CHEMBL1201862, “PubChem BioAssay data set” (2004):
The source made the active and inactive calls.

Assays:
[1] = cells; type: functional
[2] = THP-1 cell cytotoxicity, dose response, cytotoxicity control for non-replicating M. tuberculosis project (AID 489025); type: functional
[3] = P. falciparum Dd2 growth inhibitors, dose response, SYBR Green, cherry-picked samples (AID 1159567); type: functional, cell-based
[4] = HepG2 cell cytotoxicity, dose response, cytotoxicity control, cherry-picked samples (AID 1159577); type: functional, cell-based
[5] = Luminescence Cell-Based Dose Confirmation HTS to Identify Inhibitors of Platelet Dense Granule Release. [Related pubchem assays: 1663 (Primary HTS), 1678 (Summary of Project)]; type: functional
[6] = target: Luciferin 4-monooxygenase (Photinus pyralis, UniProt P08659); test: firefly luciferase enzyme inhibitors, dose response, biochemical, luminescence (AID 1891)
Chain of Luciferin 4-monooxygenase (P08659 whole entry): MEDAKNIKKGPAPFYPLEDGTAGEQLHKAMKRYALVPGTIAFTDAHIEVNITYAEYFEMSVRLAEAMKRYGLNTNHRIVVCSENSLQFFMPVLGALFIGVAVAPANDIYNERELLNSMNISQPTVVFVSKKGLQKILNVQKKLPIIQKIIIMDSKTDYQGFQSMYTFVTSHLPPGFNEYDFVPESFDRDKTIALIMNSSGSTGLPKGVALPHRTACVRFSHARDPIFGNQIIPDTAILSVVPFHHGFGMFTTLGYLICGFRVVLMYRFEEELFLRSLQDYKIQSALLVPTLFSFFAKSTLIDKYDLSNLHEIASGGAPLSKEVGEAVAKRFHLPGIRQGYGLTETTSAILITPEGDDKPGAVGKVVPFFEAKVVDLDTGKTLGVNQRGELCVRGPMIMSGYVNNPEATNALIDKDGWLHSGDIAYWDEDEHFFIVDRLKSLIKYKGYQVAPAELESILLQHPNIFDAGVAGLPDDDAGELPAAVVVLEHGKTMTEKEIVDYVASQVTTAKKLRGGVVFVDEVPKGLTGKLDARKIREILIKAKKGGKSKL

[7] = target: Cytochrome P450 3A4 (Homo sapiens, UniProt P08684); conditions: Potency;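 note: confirmatory qHTS run detecting inhibitors and substrates of CYP3A4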
Chain of Cytochrome P450 3A4 (P08684 whole entry): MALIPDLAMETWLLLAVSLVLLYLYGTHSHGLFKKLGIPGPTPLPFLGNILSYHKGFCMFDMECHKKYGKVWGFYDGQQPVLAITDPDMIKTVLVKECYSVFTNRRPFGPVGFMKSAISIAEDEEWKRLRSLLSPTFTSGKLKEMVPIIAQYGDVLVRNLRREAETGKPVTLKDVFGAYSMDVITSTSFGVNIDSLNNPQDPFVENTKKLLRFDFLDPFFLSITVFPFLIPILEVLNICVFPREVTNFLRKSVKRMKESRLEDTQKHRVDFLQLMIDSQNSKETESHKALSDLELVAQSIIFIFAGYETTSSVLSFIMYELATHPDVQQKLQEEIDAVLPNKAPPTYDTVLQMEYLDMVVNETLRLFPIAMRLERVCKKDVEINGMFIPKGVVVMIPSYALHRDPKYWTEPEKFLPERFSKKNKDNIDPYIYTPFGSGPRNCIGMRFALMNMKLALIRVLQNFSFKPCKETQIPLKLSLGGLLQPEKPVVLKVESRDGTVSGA

[8] = C. albicans growth with fluconazole, confirmation, fluorescence, retest (AID 2467); type: functional, cell-based
[9] = A cytotoxicity screen of small molecule inhibitors of the PhoP region in Salmonella typhi identified in the primary screen. [Related pubchem assays: 1850, 1864, 1985 ]; type: functional
[10] = NIH-3T3 fibroblast cytotoxicity, dose response, cytotoxicity control, cell-based, fluorescence, Alamar Blue, secondary assay (AID 2327); type: functional;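 note: NIH-3T3 mouse fibroblasts cultured with fluconazole at 8 µg/mL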
[11] = inhibitors of intracellular T. cruzi replication, confirmation, NIH3T3 host cells, beta-gal luminescence (AID 2044); type: functional, cell-based;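 note: intracellular parasites grown in NIH/3T3 mouse fibroblasts as host cells; luminescent beta-galactosidase reporter signal from transgenic T. cruzi replicating inside host cells; inhibitors lower the luminescence signal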
[12] = cytotoxicity toward NIH3T3 fibroblasts, dose response, counter-screen, cell-based, ATP luminescence, mouse fibroblasts (AID 2010); type: functional;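 note: cells exposed to compound for about 90 hours before reading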
[13] = target: Voltage-dependent T-type calcium channel subunit alpha-1H (Homo sapiens, UniProt O95180); type: functional;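 note: channel activity triggered by adding a high calcium stimulation buffer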
Chain of Voltage-dependent T-type calcium channel subunit alpha-1H (O95180 whole entry): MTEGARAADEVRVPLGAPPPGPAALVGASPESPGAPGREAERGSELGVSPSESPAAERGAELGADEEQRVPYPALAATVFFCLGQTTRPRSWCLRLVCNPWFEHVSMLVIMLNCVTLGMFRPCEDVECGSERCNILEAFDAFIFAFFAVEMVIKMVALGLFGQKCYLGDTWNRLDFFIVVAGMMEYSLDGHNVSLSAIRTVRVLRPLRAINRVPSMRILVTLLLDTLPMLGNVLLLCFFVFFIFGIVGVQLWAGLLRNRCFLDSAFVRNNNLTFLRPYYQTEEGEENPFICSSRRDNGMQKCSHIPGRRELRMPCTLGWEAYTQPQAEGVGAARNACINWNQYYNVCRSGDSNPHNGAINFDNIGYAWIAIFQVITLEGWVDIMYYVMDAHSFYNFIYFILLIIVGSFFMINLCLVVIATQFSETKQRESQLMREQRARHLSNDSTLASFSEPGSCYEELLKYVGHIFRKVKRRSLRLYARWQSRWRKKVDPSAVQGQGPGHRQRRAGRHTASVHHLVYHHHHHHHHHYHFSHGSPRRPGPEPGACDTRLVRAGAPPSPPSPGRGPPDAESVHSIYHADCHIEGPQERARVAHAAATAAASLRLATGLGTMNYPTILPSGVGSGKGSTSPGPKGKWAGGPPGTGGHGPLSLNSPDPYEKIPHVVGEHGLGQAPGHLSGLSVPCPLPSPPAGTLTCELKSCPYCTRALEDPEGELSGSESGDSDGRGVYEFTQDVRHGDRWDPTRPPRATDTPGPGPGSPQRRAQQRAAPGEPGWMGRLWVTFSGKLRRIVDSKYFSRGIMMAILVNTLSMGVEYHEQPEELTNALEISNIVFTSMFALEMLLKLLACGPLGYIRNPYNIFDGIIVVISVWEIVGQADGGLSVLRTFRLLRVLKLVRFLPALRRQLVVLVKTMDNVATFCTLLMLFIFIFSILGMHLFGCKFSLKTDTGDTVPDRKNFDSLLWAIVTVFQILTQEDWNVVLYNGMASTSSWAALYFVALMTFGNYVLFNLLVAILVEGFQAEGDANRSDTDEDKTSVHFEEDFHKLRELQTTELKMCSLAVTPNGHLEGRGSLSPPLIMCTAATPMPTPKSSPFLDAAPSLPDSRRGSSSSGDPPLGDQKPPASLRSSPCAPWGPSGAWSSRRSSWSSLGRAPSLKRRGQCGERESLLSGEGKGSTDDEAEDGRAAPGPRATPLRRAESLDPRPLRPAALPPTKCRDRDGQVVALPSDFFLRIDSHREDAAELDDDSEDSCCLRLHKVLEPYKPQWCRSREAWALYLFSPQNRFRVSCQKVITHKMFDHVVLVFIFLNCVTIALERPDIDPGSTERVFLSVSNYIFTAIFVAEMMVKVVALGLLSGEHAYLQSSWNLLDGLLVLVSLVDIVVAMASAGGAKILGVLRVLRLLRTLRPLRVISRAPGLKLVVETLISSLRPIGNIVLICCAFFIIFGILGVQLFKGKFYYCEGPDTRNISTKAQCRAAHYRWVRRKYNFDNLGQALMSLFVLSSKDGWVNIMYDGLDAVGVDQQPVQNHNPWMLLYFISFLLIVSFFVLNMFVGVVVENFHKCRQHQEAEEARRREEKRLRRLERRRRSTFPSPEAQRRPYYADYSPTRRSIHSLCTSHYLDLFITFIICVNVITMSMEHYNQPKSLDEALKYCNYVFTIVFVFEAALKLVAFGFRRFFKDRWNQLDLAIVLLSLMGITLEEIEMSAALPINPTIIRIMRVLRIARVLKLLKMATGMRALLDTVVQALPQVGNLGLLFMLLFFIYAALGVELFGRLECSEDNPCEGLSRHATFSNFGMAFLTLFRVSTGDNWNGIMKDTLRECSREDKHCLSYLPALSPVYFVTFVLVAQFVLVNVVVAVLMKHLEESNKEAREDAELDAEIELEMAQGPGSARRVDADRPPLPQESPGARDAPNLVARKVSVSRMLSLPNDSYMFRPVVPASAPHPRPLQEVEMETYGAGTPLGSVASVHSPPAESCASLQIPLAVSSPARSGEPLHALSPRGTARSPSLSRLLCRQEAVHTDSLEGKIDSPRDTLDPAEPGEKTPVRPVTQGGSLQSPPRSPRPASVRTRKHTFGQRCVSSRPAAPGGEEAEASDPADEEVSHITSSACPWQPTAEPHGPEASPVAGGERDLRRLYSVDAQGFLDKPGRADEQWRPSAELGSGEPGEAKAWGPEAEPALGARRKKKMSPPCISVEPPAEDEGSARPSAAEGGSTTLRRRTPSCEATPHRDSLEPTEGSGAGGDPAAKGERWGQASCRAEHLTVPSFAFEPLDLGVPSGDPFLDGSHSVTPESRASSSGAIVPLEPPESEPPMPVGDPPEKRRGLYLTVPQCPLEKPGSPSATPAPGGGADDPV

[14] = HepG2 cell cytotoxicity, dose response, cytotoxicity control for Shn3 inhibitor project, CellTiter-Glo, cherry-picked (AID 624134); type: functional, cell-based
[15] = system: INS1; test: beta cell apoptosis inhibitors, cytokine rescue, dose response, luminescence, retest (AID 449756); type: functional, cell-based; conditions: Rattus norvegicus;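 note: cell death triggered by IL-1 beta plus TNF-alpha plus IFN-gamma mixture; protective hits raise ATP signal compared with cytokine alone wells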
[16] = control 3'UTR Renilla luciferase suppression, dose response, counter-screen for Shn3 inhibitor project, cell-based, Clone20-Shn3RL, cherry-picked (AID 624133); type: functional
[17] = Shn3 3'UTR reporter inhibitors, dose response, cell-based, Clone20 osteoblasts, firefly luciferase, cherry-picked (AID 624132); type: functional;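 note: firefly luciferase luminescence from reporter carrying the Shn3 3'UTR in osteoblasts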
[18] = ZM109 Env clade C HIV-1 fusion inhibitors, dose response, HeLa effector, CEM target cells, luciferase, cherry-pick (AID 652058); type: functional, cell-based
[19] = inhibitors of HIV Env-driven cell fusion, dose response, cherry-pick (AID 652057); type: functional, cell-based
[20] = inhibitors of clade B AD8 Env fusion, dose response, cell-based, cherry-pick (AID 652062); type: functional;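 note: luciferase signal from cell-cell fusion driven by HIV-1 clade B AD8 Env; potency is for inhibitors of fusion seen as a drop in luminescence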
[21] = system: BJ; test: cytotoxicity toward BJ-TERT-LT-ST fibroblasts, dose response, cell-based, RAS-independent, luminescence (AID 1935); type: functional; conditions: Homo sapiens;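 note: BJ fibroblasts immortalized with TERT plus LT and ST oncogenes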
[22] = system: BJ; test: cytotoxicity toward BJ-TERT fibroblasts, dose response, cell-based, RAS-independent, luminescence (AID 1933); type: functional; conditions: Homo sapiens
[23] = cytotoxicity toward DRD oncogenic fibroblasts, dose response, cell-based, non-viral oncogenic, luminescence (AID 1934); type: functional; conditions: Homo sapiens
[24] = system: BJ; test: cells; type: functional, cell-based; conditions: Homo sapiens
[25] = target: Estrogen receptor beta (Homo sapiens, UniProt Q92731); test: ERβ–SRC-3 coactivator interaction inhibitors, confirmation, orthogonal assay, biochemical, ELISA, streptavidin-HRP readout (AID 1060)
Chain of Estrogen receptor beta (Q92731 whole entry): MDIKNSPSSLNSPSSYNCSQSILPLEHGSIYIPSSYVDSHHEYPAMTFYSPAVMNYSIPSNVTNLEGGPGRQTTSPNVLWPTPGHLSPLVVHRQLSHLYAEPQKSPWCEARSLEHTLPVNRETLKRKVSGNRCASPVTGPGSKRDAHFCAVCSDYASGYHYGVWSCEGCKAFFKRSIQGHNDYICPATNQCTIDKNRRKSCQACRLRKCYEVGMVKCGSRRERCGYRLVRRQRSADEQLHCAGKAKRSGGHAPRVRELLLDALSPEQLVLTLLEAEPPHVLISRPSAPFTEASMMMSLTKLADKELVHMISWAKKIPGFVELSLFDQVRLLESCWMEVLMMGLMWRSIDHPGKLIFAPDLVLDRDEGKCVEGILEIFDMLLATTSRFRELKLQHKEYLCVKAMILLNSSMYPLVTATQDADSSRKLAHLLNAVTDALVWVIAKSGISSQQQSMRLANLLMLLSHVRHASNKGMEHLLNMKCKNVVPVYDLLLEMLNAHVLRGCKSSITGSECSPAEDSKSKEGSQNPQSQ

[26] = target: T1, Estrogen receptor (Homo sapiens, UniProt P03372);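 note: potency for inhibiting coactivator peptide recruitment to the receptor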
T1 sequence (P03372 whole entry): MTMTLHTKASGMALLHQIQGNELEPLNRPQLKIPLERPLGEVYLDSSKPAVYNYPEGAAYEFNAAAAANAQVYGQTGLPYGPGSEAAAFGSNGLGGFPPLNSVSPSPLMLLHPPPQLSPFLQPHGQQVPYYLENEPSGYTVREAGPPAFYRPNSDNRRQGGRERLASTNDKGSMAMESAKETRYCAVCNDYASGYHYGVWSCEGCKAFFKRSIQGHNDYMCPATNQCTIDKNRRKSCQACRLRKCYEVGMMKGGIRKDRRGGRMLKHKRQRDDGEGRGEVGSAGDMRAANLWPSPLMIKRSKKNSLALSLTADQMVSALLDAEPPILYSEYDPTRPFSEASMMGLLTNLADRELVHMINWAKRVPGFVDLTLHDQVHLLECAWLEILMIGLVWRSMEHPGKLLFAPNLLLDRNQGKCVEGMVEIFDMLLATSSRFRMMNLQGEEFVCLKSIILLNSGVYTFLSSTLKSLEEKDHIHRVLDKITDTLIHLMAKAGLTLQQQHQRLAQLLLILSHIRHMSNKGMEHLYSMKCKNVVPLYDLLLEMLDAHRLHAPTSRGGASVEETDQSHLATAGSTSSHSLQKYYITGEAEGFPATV

SMILES: Nc1ncnc(Oc2cccc3cccnc23)c1[N+](=O)[O-]
- IC50 [1]: 10.8 µM (active)
- CC50 [2]: 39.5 µM (active)

SMILES: COc1cccc(CN2CC3(CCN(CC4CC4)CC3)c3c([nH]c4cc(OC)ccc34)[C@H]2CO)c1
- AC50 [3]: 5 µM (active)
- AC50 [4]: 19.7 µM (active)

SMILES: CCOC(=O)c1cc2cc([N+](=O)[O-])ccc2oc1=O
- EC50 [5]: > 112 µM (not active)
- EC50 [6]: > 112 µM (not active)

SMILES: COc1cccc2oc(-c3ccccc3)cc(=O)c12
- AC50 [7]: 31.6 µM (inconclusive)

SMILES: C[C@@H]1CN([C@H](C)CO)S(=O)(=O)c2ccc(/C=C/c3ccccc3)cc2O[C@H]1CN(C)Cc1cccnc1
- AC50 [3]: 3.7 µM (active)
- AC50 [4]: 19.7 µM (active)

SMILES: Cc1ccc(CC(=O)Nc2ncc([N+](=O)[O-])s2)cc1
- EC50 [8]: 0.033 µM (active)
- EC50 [9]: > 50 µM (active)
- EC50 [10]: 37.3 µM (active)
- EC50 [11]: 0.687 µM (active)
- EC50 [12]: > 30 µM (not active)

SMILES: COC(=O)c1c(C)cc(O)cc1O [METHYL ORSELLINATE]
- AC50 [7]: 12.6 µM (inconclusive)

SMILES: O=C(CSCc1nc2ccccc2[nH]1)N1CCN(c2cccc(Cl)c2)CC1
- EC50 [13]: 3.55 µM (active)

SMILES: O=C(Nc1cccnc1)c1cc(Br)c(Br)s1
- EC50 [9]: > 50 µM (active)

SMILES: O=C(NCCCN1CCOCC1)c1c(O)nc2c(Br)cc(Br)cc2c1O
- IC50 [1]: 1.04 µM (active)
- CC50 [2]: > 40 µM (active)

SMILES: COC(=O)c1ccc(C(/C=C/[C@@H](C)C(=O)N(C)C)NC(=O)OCc2ccccc2)cc1 (stereo partly drawn)
- AC50 [7]: 10 µM (inconclusive)

SMILES: C=CCn1c(O)c(N=NC(=O)c2cccnc2)c2cc(Br)ccc21
- EC50 [9]: > 50 µM (active)

SMILES: CC1(C)CC[C@]2(C(=O)O)CC[C@@]3(C)C(=CCC4[C@@]5(C)CCC(O)[C@@](C)(CO)C5CC[C@@]43C)C2C1 (stereo partly drawn)
- AC50 [7]: 12.6 µM (inconclusive)

SMILES: Cc1ccc(C(=O)Nc2cccc3[nH]c(C(F)(F)F)nc23)cc1
- AC50 [14]: 33.6 µM (active)
- AC50 [15]: 7.25 µM (active)
- AC50 [16]: 10.3 µM (active)
- AC50 [17]: 3.93 µM (active)

SMILES: C/C(=N\NC(=O)COc1ccccc1[N+](=O)[O-])c1cccs1
- EC50 [9]: > 50 µM (active)

SMILES: Cc1nc(CS(=O)(=O)c2ccc(Cl)cc2)cc(Sc2ccc(Cl)cc2)n1
- EC50 [13]: 4.35 µM (active)

SMILES: O=C1NC(=O)C2(CCC(C(=O)O)C2)N1 (stereo not drawn)
- EC50 [5]: > 112 µM (not active)
- EC50 [6]: > 112 µM (not active)

SMILES: O=C(NCN1CCN(c2ccccn2)CC1)c1cnccn1
- EC50 [5]: > 112 µM (not active)
- EC50 [6]: > 112 µM (not active)

SMILES: C[C@H](CO)N1C[C@H](C)[C@H](CN(C)S(=O)(=O)c2ccc(Cl)cc2)Oc2ccc(NC(=O)C3CCCCC3)cc2CC1=O
- AC50 [18]: 2.13 µM (active)
- AC50 [19]: 1.36 µM (active)
- AC50 [20]: 20.1 µM (active)

SMILES: COC1C=CC23c4cc5c(cc4CN(CC2O)C3C1)OCO5 (stereo not drawn)
- AC50 [7]: 39.8 µM (inconclusive)

SMILES: Oc1ccc(C(c2nnnn2C2CCCC2)N2CCc3ccccc3C2)cc1 (stereo not drawn)
- EC50 [13]: 5.95 µM (active)

SMILES: COc1cc(SC)ccc1C(=O)NNC(=O)c1cc(C)oc1C
- EC50 [21]: 18.2 µM (active)
- EC50 [22]: 3.71 µM (inconclusive)
- EC50 [23]: 3.82 µM (active)
- EC50 [24]: 6.06 µM (active)
- EC50 [5]: 8.87 µM (active)
- EC50 [6]: 1.4 µM (active)

SMILES: COc1ccccc1-c1c(C(F)(F)F)n[nH]c1-c1ccc(O)cc1O
- AC50 [18]: 0.97 µM (active)
- AC50 [14]: > 70 µM (inactive)
- AC50 [16]: 1.42 µM (active)
- AC50 [17]: 0.708 µM (active)
- AC50 [20]: 19 µM (active)

SMILES: COc1c2ccoc2nc2c(OC)c(OCC(O)C(C)(C)O)ccc12 (stereo not drawn) [EVOXINE]
- AC50 [7]: 15.8 µM (inconclusive)

SMILES: CC(C)(C)n1nnnc1C(c1ccc(F)cc1)N(Cc1ccc(F)cc1)Cc1ccco1 (stereo not drawn)
- AC50 [15]: 8.41 µM (active)
- EC50 [13]: 2.6 µM (active)

SMILES: COc1ccc(NC(=O)c2cc(-c3ccc(C)o3)nc3ccccc23)cc1OC
- IC50 [25]: 24.7 µM (not active)

SMILES: CCOC(=O)C1CCCN(C(=O)c2cc3ncc(Br)cn3n2)C1 (stereo not drawn)
- IC50 [25]: 0.0694 µM (not active)
- IC50 [26]: 20.7 µM (active)

SMILES: COc1ccccc1NC(=O)N[C@@H]1CC[C@H](CC(=O)N[C@H](C)c2ccccc2)O[C@@H]1CO
- AC50 [18]: < 0.26 µM (active)
- AC50 [19]: 0.97 µM (active)
- AC50 [20]: 2.61 µM (active)

SMILES: C[C@H](CO)N1C[C@H](C)[C@@H](CN(C)C(=O)Nc2cccc3ccccc23)OCCCC[C@H](C)Oc2ccc(N(C)C)cc2C1=O
- AC50 [18]: 24.8 µM (active)

SMILES: CC(C)N(C[C@H]1N[C@H](CO)[C@@H]1c1ccc(C2=CCCC2)cc1)C(=O)CN(C)C
- AC50 [3]: 5.21 µM (active)
- AC50 [4]: > 39 µM (inactive)

SMILES: COc1ccc(C#Cc2ccc([C@@H]3[C@H](CO)N4CCCCN(Cc5ccncc5)C[C@@H]34)cc2)cc1
- AC50 [3]: 0.949 µM (active)
- AC50 [4]: 13.6 µM (active)

SMILES: Clc1ccc(CNCc2cccs2)cc1Cl
- EC50 [9]: > 50 µM (active)
